Reference: ChEMBL document CHEMBL1201862, “PubChem BioAssay data set” (2004)
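Each compound was tested at five concentrations against cells in 96-well plates for 48 hours. GI50 marks 50% less growth.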 Active and inactive are the calls of the source. No stated cut-off is given here; in the data, active = GI50 up to about 1.1 µM and inactive = higher.

Columns and labels:
Assay in all cases: DTP human tumour cell line panel, 48 h
SNB-75 = tested on: SNB-75
SF-268 = tested on: SF-268
K562 = tested on: K562
UACC-62 = tested on: UACC-62
EKVX = tested on: EKVX
HCC 2998 = tested on: HCC 2998
CCRF-CEM = tested on: CCRF-CEM
HOP-92 = tested on: HOP-92
OVCAR-5 = tested on: OVCAR-5
SW-620 = tested on: SW-620
RXF 393 = tested on: RXF 393
HT-29 = tested on: HT-29
SN12C = tested on: SN12C
786-0 = tested on: 786-0
Malme-3M = tested on: Malme-3M
PC-3 = tested on: PC-3
MCF7 = tested on: MCF7
Hs-578T = tested on: Hs-578T
NCI/ADR-RES = tested on: NCI/ADR-RES

Row | SMILES | GI50 (SNB-75) | GI50 (SF-268) | GI50 (K562) | GI50 (UACC-62) | GI50 (EKVX) | GI50 (HCC 2998) | GI50 (CCRF-CEM) | GI50 (HOP-92) | GI50 (OVCAR-5) | GI50 (SW-620) | GI50 (RXF 393) | GI50 (HT-29) | GI50 (SN12C) | GI50 (786-0) | GI50 (Malme-3M) | GI50 (PC-3) | GI50 (MCF7) | GI50 (Hs-578T) | GI50 (NCI/ADR-RES)
1 | CC1NOC(=O)C1/N=N/c1ccc(Cl)cc1Cl (centres undefined) | 20.9 µM (inactive) | 32.2 µM (inactive) | 25.2 µM (inactive) | 30.7 µM (inactive) | 24.6 µM (inactive) | 29.9 µM (inactive) | 30.9 µM (inactive) | 19.8 µM (inactive) | 69.7 µM (inactive) | 7.98 µM (inactive) | 20.7 µM (inactive) | 32.8 µM (inactive) | 21.6 µM (inactive) | 18.7 µM (inactive) | 25.5 µM (inactive) | – | – | – | –
2 | Oc1ccc[n+](Cc2ccccc2)c1 | > 100 µM (inactive) | > 100 µM (inactive) | > 100 µM (inactive) | > 100 µM (inactive) | – | > 100 µM (inactive) | > 100 µM (inactive) | – | > 100 µM (inactive) | – | > 100 µM (inactive) | > 100 µM (inactive) | > 100 µM (inactive) | > 100 µM (inactive) | > 100 µM (inactive) | > 100 µM (inactive) | > 100 µM (inactive) | > 100 µM (inactive) | > 100 µM (inactive)
3 | O=C1Nc2cc(Cl)ccc2N=CC1NC(=O)C(c1ccccc1)c1ccccc1Cl (centres undefined) | > 100 µM (inactive) | > 100 µM (inactive) | > 100 µM (inactive) | > 100 µM (inactive) | > 100 µM (inactive) | > 100 µM (inactive) | > 100 µM (inactive) | > 100 µM (inactive) | > 100 µM (inactive) | > 100 µM (inactive) | > 100 µM (inactive) | > 100 µM (inactive) | > 100 µM (inactive) | > 100 µM (inactive) | > 100 µM (inactive) | – | – | – | –
4 | Cc1cc(=O)oc2cc(OCc3nc4ccccc4c(=O)n3-c3ccccc3)ccc12 | 20.7 µM (inactive) | > 100 µM (inactive) | > 100 µM (inactive) | > 100 µM (inactive) | > 100 µM (inactive) | > 100 µM (inactive) | > 100 µM (inactive) | 28.1 µM (inactive) | > 100 µM (inactive) | > 100 µM (inactive) | 34 µM (inactive) | > 100 µM (inactive) | > 100 µM (inactive) | 38.4 µM (inactive) | > 100 µM (inactive) | – | – | – | –
5 | O=c1ccn2n1Cc1ccccc1C2 | – | > 100 µM (inactive) | > 100 µM (inactive) | > 100 µM (inactive) | > 100 µM (inactive) | > 100 µM (inactive) | > 100 µM (inactive) | > 100 µM (inactive) | > 100 µM (inactive) | > 100 µM (inactive) | > 100 µM (inactive) | > 100 µM (inactive) | > 100 µM (inactive) | > 100 µM (inactive) | > 100 µM (inactive) | > 100 µM (inactive) | – | > 100 µM (inactive) | > 100 µM (inactive)
6 | CN(C)CCCSc1c2ccccc2nc2cc(NCC(=O)Nc3ccccc3-c3ccccc3NC(=O)CNc3ccc4c(SCCCN(C)C)c5ccccc5nc4c3)ccc12 | > 100 µM (inactive) | > 100 µM (inactive) | 71.4 µM (inactive) | > 100 µM (inactive) | > 100 µM (inactive) | > 100 µM (inactive) | 25.3 µM (inactive) | > 100 µM (inactive) | > 100 µM (inactive) | > 100 µM (inactive) | > 100 µM (inactive) | > 100 µM (inactive) | > 100 µM (inactive) | > 100 µM (inactive) | 59.4 µM (inactive) | – | – | – | –
7 | Clc1ccc(-n2nnc(C3=NCCCN3)c2-c2ccccc2)cc1 | > 100 µM (inactive) | > 100 µM (inactive) | > 100 µM (inactive) | > 100 µM (inactive) | > 100 µM (inactive) | > 100 µM (inactive) | > 100 µM (inactive) | > 100 µM (inactive) | > 100 µM (inactive) | > 100 µM (inactive) | > 100 µM (inactive) | > 100 µM (inactive) | > 100 µM (inactive) | > 100 µM (inactive) | > 100 µM (inactive) | – | – | – | –
8 | CCNC(=O)C#CC(=O)NCC | > 69 µM (inactive) | 53.7 µM (inactive) | > 45.3 µM (inactive) | > 100 µM (inactive) | > 100 µM (inactive) | > 100 µM (inactive) | > 46.1 µM (inactive) | > 100 µM (inactive) | > 100 µM (inactive) | > 48 µM (inactive) | > 10 µM (inactive) | > 100 µM (inactive) | > 100 µM (inactive) | > 100 µM (inactive) | > 10 µM (inactive) | – | – | – | –
9 | Cc1ccc(C)c(NC(=O)c2cc(-c3ccc([N+](=O)[O-])cc3)nc(N)n2)c1 | > 100 µM (inactive) | > 100 µM (inactive) | > 100 µM (inactive) | > 100 µM (inactive) | > 100 µM (inactive) | > 100 µM (inactive) | > 100 µM (inactive) | > 100 µM (inactive) | > 100 µM (inactive) | > 100 µM (inactive) | > 100 µM (inactive) | > 100 µM (inactive) | > 100 µM (inactive) | > 100 µM (inactive) | > 100 µM (inactive) | – | – | – | –
10 | Nn1c(S)nnc1NNC(=O)C(=O)Nc1cc(Cl)c(Cl)cc1Cl | 15.5 µM (inactive) | > 100 µM (inactive) | 0.012 µM (active) | > 100 µM (inactive) | > 100 µM (inactive) | > 100 µM (inactive) | 20 µM (inactive) | > 100 µM (inactive) | > 100 µM (inactive) | > 100 µM (inactive) | > 100 µM (inactive) | > 100 µM (inactive) | > 100 µM (inactive) | > 100 µM (inactive) | > 100 µM (inactive) | – | – | – | –
11 | COc1cccc(-c2cc(C(=O)Nc3ccc(Cl)cc3)nc(N)n2)c1 | 21.4 µM (inactive) | 65.2 µM (inactive) | 40.5 µM (inactive) | 42.6 µM (inactive) | > 100 µM (inactive) | 87.7 µM (inactive) | > 100 µM (inactive) | > 100 µM (inactive) | > 100 µM (inactive) | 36.7 µM (inactive) | 39.4 µM (inactive) | 45.5 µM (inactive) | 57.7 µM (inactive) | 55 µM (inactive) | 57.7 µM (inactive) | – | – | – | –
12 | CC(=O)OCC1OC(O[C@@H]2C[C@H]3C(C)(C)[C@H](OC(C)=O)CC[C@]3(C)[C@H]3CC[C@]4(C)C(=CC[C@H]4[C@@H](C)C[C@@H](O)[C@H](O)C(C)(C)O)[C@@]32C)C(O)C(O)C1O (some centres undefined) | 22 µM (inactive) | 15.8 µM (inactive) | 18.3 µM (inactive) | 16.1 µM (inactive) | 19.1 µM (inactive) | 20.8 µM (inactive) | 17.6 µM (inactive) | 17 µM (inactive) | 14.1 µM (inactive) | 17.9 µM (inactive) | – | 17.4 µM (inactive) | 17.5 µM (inactive) | 16.4 µM (inactive) | 17.8 µM (inactive) | 16.9 µM (inactive) | 17.3 µM (inactive) | – | > 100 µM (inactive)
13 | c1ccc2c(c1)c1c(n2CCOCCN2CCCCC2)CCCC1 | 11.6 µM (inactive) | 16.9 µM (inactive) | 6.18 µM (inactive) | 15 µM (inactive) | 16.9 µM (inactive) | 11.5 µM (inactive) | 12.4 µM (inactive) | 8.2 µM (inactive) | 12.3 µM (inactive) | 17.3 µM (inactive) | – | 11.6 µM (inactive) | 13.7 µM (inactive) | 13.4 µM (inactive) | 13.1 µM (inactive) | 9.04 µM (inactive) | 13.7 µM (inactive) | 14.5 µM (inactive) | 10.1 µM (inactive)
14 | C[C@]12CCC(=O)C=C1CC[C@@H]1[C@@H]2CC[C@]2(C)C(=O)NC(=O)C[C@@H]12 | > 100 µM (inactive) | > 100 µM (inactive) | > 100 µM (inactive) | > 100 µM (inactive) | > 100 µM (inactive) | > 100 µM (inactive) | > 100 µM (inactive) | > 100 µM (inactive) | > 100 µM (inactive) | > 100 µM (inactive) | > 100 µM (inactive) | > 100 µM (inactive) | > 100 µM (inactive) | > 100 µM (inactive) | > 100 µM (inactive) | – | – | – | –
15 | O=C(Nc1ccc(Cl)c(Cl)c1)C(=O)Nn1c(S)nc2ccccc2c1=O | > 100 µM (inactive) | > 100 µM (inactive) | > 100 µM (inactive) | > 100 µM (inactive) | > 100 µM (inactive) | > 100 µM (inactive) | > 100 µM (inactive) | 45.3 µM (inactive) | > 100 µM (inactive) | > 100 µM (inactive) | > 100 µM (inactive) | > 100 µM (inactive) | > 100 µM (inactive) | > 100 µM (inactive) | > 100 µM (inactive) | – | – | – | –
16 | Cn1c(N)nc2c(nc(OCc3ccccc3)n2C2OC(CO)C(O)C2O)c1=O (centres undefined) | > 100 µM (inactive) | > 100 µM (inactive) | > 100 µM (inactive) | > 100 µM (inactive) | > 100 µM (inactive) | – | > 100 µM (inactive) | > 100 µM (inactive) | > 100 µM (inactive) | > 100 µM (inactive) | > 100 µM (inactive) | > 100 µM (inactive) | > 100 µM (inactive) | > 100 µM (inactive) | > 100 µM (inactive) | > 100 µM (inactive) | > 100 µM (inactive) | > 100 µM (inactive) | –
17 | CC(C)(C)c1cc(Oc2ccc(C#N)c(C#N)c2)cc(C(C)(C)C)c1 | > 100 µM (inactive) | > 100 µM (inactive) | 83.2 µM (inactive) | > 100 µM (inactive) | > 100 µM (inactive) | > 100 µM (inactive) | 38.3 µM (inactive) | > 100 µM (inactive) | > 100 µM (inactive) | – | > 100 µM (inactive) | > 100 µM (inactive) | > 100 µM (inactive) | 90.2 µM (inactive) | > 100 µM (inactive) | – | – | – | –
